Columns and labels:
Assay in all cases: KINOMEscan
Format in all cases: binding
Details in all cases: 1 μM
[1] = target: FGFR1 (Homo sapiens, UniProt P11362)
[2] = target: PIM3 (Homo sapiens, UniProt Q86V86)
[3] = target: QSK (Homo sapiens, UniProt Q9Y2K2)
[4] = target: PLK4 (Homo sapiens, UniProt O00444)
[5] = target: PIK3CB (Homo sapiens, UniProt P42338)
[6] = target: T1, IKK-epsilon (Homo sapiens, UniProt Q14164)
T1 construct: purchased Eurofins DiscoverX (KINOMEscan)

[7] = target: T2, MAP3K4 (Homo sapiens, UniProt Q9Y6R4)
T2 construct: purchased Eurofins DiscoverX Corporation

[8] = target: PAK2 (Homo sapiens, UniProt Q13177)
[9] = target: PDGFRB (Homo sapiens, UniProt P09619)
[10] = target: T3, MKNK1 (Homo sapiens, UniProt Q9BUB5)
T3 construct: purchased Eurofins DiscoverX Corporation

[11] = target: T4, MELK (Homo sapiens, UniProt Q14680)
T4 construct: purchased Eurofins DiscoverX Corporation
T4 sequence (Q14680 whole entry): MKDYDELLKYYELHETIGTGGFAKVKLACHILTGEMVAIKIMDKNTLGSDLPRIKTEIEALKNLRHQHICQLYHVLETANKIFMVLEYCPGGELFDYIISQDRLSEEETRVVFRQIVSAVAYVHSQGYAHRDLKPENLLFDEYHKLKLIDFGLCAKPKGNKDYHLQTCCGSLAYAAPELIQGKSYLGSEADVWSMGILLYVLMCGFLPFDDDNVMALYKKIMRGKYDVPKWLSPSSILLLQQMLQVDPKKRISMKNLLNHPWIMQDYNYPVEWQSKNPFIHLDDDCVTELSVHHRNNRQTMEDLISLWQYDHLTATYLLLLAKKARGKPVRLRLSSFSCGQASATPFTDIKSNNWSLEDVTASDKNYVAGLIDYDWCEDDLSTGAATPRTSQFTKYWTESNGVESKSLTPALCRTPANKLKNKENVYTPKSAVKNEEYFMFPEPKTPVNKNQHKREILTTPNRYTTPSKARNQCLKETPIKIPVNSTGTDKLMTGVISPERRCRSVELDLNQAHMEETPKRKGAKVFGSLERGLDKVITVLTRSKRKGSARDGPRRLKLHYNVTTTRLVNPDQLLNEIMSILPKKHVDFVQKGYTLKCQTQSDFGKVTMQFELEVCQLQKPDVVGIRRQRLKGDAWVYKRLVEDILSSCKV

[12] = target: T5, TNIK (Homo sapiens, UniProt Q9UKE5)
T5 construct: purchased Eurofins DiscoverX Corporation

[13] = target: RSK4(Kin.Dom.2-C-terminal) (Homo sapiens, UniProt Q9UK32)
[14] = target: RET(V804L) (Homo sapiens, UniProt P07949, V804L)
[15] = tested on: FLT3(ITD+F691L)
[16] = target: PLK3 (Homo sapiens, UniProt Q9H4B4)
[17] = target: CLK3 (Homo sapiens, UniProt P49761)
[18] = target: RET(V804M) (Homo sapiens, UniProt P07949, V804M)
[19] = target: T6, MEK2 (Homo sapiens, UniProt P36507)
T6 construct: purchased Eurofins DiscoverX Corporation
T6 sequence (P36507 whole entry): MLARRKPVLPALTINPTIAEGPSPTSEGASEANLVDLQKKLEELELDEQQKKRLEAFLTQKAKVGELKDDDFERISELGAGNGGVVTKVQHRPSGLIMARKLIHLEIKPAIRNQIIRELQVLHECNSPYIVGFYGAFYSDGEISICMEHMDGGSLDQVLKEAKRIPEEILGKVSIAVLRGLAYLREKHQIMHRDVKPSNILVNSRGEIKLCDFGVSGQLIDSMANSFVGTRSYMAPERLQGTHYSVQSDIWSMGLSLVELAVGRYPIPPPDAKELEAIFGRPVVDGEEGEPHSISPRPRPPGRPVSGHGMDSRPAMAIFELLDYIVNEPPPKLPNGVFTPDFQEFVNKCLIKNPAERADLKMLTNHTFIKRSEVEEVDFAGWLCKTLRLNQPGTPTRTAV

[20] = target: T7, STK39 (Homo sapiens, UniProt Q9UEW8)
T7 construct: purchased Eurofins DiscoverX Corporation

[21] = target: T8, MEK4 (Homo sapiens, UniProt P45985)
T8 construct: purchased Eurofins DiscoverX Corporation
T8 sequence (P45985 whole entry): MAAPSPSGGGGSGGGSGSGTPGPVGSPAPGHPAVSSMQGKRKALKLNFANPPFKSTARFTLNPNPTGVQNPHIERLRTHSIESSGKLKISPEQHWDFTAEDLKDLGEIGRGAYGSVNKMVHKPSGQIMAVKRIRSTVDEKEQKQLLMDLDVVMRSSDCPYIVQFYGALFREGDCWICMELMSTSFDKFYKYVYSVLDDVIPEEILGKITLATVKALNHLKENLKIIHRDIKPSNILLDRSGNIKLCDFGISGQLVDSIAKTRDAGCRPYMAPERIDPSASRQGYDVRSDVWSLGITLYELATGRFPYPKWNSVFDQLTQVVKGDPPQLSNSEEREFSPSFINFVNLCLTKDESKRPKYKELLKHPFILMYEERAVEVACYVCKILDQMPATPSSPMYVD

[22] = target: ULK2 (Homo sapiens, UniProt Q8IYT8)
[23] = target: TXK (Homo sapiens, UniProt P42681)
[24] = target: VEGFR2 (Homo sapiens, UniProt P35968)
[25] = target: T9, GRK2 (Homo sapiens, UniProt P25098)
T9 construct: purchased Eurofins DiscoverX Corporation

[26] = target: NEK6 (Homo sapiens, UniProt Q9HC98)
[27] = target: PAK4 (Homo sapiens, UniProt O96013)
Chain of PAK4 (O96013 whole entry): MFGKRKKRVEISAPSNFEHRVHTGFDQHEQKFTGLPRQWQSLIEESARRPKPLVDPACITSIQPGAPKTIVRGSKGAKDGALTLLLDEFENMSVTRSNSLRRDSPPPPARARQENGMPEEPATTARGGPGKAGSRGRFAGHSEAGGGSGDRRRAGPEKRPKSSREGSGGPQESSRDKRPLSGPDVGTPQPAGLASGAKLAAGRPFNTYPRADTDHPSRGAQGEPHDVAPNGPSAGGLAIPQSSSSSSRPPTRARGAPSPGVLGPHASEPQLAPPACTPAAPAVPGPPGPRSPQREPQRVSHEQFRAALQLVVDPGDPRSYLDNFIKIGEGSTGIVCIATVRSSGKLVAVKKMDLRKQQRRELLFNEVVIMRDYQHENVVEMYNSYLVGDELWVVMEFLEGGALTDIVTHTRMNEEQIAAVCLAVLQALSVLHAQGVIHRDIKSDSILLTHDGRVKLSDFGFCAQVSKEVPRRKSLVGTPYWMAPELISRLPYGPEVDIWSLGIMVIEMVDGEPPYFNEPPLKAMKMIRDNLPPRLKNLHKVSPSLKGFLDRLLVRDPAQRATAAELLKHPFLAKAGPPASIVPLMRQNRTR

[28] = target: FGFR3(G697C) (Homo sapiens, UniProt P22607, G697C)
[29] = target: ACVRL1 (Homo sapiens, UniProt P37023)
[30] = target: T10, LRRK2(G2019S) (Homo sapiens, UniProt Q5S007, G2019S)
T10 construct: purchased Eurofins DiscoverX Corporation

[31] = target: T11, IGF1R (Homo sapiens, UniProt P08069)
T11 construct: purchased Eurofins DiscoverX (KINOMEscan)

[32] = tested on: FLT3(ITD+D835V)
[33] = target: T12, DYRK1A (Homo sapiens, UniProt Q13627)
T12 construct: purchased Eurofins DiscoverX Corporation

[34] = target: PHKG2 (Homo sapiens, UniProt P15735)
[35] = target: RIPK5 (Homo sapiens, UniProt Q6XUX3)
Chain of RIPK5 (Q6XUX3 whole entry): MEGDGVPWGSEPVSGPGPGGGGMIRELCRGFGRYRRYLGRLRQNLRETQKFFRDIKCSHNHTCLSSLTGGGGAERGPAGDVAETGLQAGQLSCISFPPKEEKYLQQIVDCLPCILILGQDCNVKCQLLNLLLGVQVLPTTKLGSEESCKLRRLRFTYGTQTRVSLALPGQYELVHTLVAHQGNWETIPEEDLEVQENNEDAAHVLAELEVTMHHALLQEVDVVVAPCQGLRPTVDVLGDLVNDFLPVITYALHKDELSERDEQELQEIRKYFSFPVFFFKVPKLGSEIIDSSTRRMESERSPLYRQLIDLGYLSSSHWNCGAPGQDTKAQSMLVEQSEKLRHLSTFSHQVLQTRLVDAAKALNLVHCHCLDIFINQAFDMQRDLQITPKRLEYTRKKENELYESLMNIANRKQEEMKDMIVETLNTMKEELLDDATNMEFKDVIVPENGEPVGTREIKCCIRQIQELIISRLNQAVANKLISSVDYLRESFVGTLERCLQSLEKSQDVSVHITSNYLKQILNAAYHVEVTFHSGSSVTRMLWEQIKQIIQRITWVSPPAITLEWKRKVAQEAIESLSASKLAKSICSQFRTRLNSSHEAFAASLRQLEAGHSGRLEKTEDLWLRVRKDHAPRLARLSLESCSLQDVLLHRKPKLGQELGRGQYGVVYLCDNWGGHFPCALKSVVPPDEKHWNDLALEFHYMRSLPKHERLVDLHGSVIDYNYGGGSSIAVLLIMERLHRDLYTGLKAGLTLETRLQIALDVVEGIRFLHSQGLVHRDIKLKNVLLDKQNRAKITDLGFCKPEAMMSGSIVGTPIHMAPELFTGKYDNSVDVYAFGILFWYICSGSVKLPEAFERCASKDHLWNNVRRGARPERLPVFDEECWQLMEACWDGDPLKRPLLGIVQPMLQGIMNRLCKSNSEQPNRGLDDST

[36] = target: T13, DCAMKL3 (Homo sapiens, UniProt Q9C098)
T13 construct: purchased Eurofins DiscoverX Corporation

[37] = target: PIK3C2B (Homo sapiens, UniProt O00750)
Chain of PIK3C2B (O00750 whole entry): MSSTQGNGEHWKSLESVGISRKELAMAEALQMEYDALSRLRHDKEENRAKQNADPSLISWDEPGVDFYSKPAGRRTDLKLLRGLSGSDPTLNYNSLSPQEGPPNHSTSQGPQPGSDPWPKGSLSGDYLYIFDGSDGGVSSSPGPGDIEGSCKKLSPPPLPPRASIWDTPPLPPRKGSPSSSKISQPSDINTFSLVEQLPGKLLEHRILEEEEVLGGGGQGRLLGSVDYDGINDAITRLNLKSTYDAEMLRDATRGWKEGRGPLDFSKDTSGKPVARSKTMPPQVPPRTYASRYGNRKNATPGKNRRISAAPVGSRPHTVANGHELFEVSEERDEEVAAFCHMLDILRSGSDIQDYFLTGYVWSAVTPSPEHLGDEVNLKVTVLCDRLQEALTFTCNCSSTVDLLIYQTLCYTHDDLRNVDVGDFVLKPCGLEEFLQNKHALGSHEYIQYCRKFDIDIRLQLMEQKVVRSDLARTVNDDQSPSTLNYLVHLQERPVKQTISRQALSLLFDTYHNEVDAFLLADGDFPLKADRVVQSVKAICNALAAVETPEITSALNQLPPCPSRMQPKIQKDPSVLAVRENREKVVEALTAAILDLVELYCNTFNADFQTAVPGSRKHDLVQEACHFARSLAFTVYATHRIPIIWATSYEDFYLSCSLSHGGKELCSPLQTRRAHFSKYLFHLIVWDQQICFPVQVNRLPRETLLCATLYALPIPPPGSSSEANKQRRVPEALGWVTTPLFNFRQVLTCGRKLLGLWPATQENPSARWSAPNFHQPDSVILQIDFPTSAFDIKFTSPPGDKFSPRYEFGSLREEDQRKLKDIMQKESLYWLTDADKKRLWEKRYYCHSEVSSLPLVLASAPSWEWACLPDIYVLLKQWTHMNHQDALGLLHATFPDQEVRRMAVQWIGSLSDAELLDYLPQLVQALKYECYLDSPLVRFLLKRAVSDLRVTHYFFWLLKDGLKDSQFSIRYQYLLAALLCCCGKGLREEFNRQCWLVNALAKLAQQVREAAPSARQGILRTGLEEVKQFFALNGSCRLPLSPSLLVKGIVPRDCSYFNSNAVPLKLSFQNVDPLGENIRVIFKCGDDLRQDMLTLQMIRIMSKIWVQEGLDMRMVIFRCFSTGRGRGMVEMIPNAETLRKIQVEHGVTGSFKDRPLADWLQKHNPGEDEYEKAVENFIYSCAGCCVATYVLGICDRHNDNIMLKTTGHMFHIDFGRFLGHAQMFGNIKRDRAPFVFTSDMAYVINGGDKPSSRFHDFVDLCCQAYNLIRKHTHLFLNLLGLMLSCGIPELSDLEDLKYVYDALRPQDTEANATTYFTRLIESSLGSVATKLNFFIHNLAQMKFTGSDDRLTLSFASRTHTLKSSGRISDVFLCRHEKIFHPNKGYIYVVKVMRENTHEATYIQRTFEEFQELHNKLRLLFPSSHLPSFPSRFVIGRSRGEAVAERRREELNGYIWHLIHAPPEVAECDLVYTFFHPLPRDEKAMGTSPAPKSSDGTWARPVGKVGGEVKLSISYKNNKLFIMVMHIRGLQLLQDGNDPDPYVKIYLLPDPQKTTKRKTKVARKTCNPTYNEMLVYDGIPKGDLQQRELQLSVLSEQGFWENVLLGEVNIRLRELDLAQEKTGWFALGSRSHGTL

[38] = target: T14, ABL2 (Homo sapiens, UniProt P42684)
T14 construct: purchased Eurofins DiscoverX Corporation

[39] = target: T15, MEK3 (Homo sapiens, UniProt P46734)
T15 construct: purchased Eurofins DiscoverX Corporation

[40] = target: RET(M918T) (Homo sapiens, UniProt P07949, M918T)
[41] = target: ADCK3 (Homo sapiens, UniProt Q8NI60)
[42] = target: T16, MYO3A (Homo sapiens, UniProt Q8NEV4)
T16 construct: purchased Eurofins DiscoverX Corporation

[43] = target: PIK3CA(C420R) (Homo sapiens, UniProt P42336, C420R)

C=CC(=O)Nc1ccc(OC)c(Nc2cc(-c3[nH]c(CC)nc3-c3cccc(NC(=O)c4cccc5c4NC(=O)c4ccccc4N5)c3)ccn2)c1 [Compound 4]
POC [1]: 86% of control | POC [2]: 100% of control | POC [3]: 100% of control | POC [4]: 71% of control | POC [5]: 90% of control | POC [6]: 100% of control | POC [7]: 100% of control | POC [8]: 100% of control | POC [9]: 100% of control | POC [10]: 100% of control | POC [11]: 100% of control | POC [12]: 33% of control | POC [13]: 80% of control | POC [14]: 99% of control | POC [15]: 79% of control | POC [16]: 87% of control | POC [17]: 74% of control | POC [18]: 91% of control | POC [19]: 100% of control | POC [20]: 85% of control | POC [21]: 100% of control | POC [22]: 80% of control | POC [23]: 42% of control | POC [24]: 100% of control | POC [25]: 100% of control | POC [26]: 100% of control | POC [27]: 89% of control | POC [28]: 100% of control | POC [29]: 75% of control | POC [30]: 100% of control | POC [31]: 90% of control | POC [32]: 100% of control | POC [33]: 100% of control | POC [34]: 73% of control | POC [35]: 79% of control | POC [36]: 86% of control | POC [37]: 74% of control | POC [38]: 92% of control | POC [39]: 100% of control | POC [40]: 99% of control | POC [41]: 100% of control | POC [42]: 14% of control | POC [43]: 66% of control

From PMC10879502, “Linking ATP and allosteric sites to achieve superadditive binding with bivalent EGFR kinase inhibitors” (Communications Chemistry, 2024)
